Reference: the supplement of paper PMC10307832

How the values were obtained:
Test in all cases: relative viability (nuclei count vs DMSO), 5 days (fraction); higher = more cells survive
[1] = compound: CC[C@H](CO)Nc1nc(NCc2ccccc2)c2ncn(C(C)C)c2n1 [Seliciclib] + NC(=O)Nc1cc(-c2cccc(F)c2)sc1C(=O)N[C@H]1CCCNC1 [AZD7762] (partner 0.2 µM)
In short: (§1)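 After 5 days of treatment, lung cancer cells in 1536-well plates were fixed and stained in a single step (final 0.05% Triton X-100, 1% formaldehyde, 1 ug/ml Hoechst) and their nuclei counted on 4× images. Treatment had been applied by pin tool the day after seeding as one drug alone or as a fixed anchor-drug dose with five library-drug doses (not always all listed) in √10 steps. Relative viability is the nuclei count of treated wells divided by that of vehicle wells, and values are medians of duplicate plates.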

[2] = compound: CC[C@H](CO)Nc1nc(NCc2ccccc2)c2ncn(C(C)C)c2n1 [Seliciclib] + Cc1cc(Nc2cc(N3CCN(C)CC3)nc(Sc3ccc(NC(=O)C4CC4)cc3)n2)n[nH]1 [Tozasertib] (partner 0.1 µM)
In short: as §1

[3] = compound: CC[C@H](CO)Nc1nc(NCc2ccccc2)c2ncn(C(C)C)c2n1 [Seliciclib] + Nc1ncn([C@H]2C[C@H](O)[C@@H](CO)O2)c(=O)n1 [Decitabine] (partner 2 µM)
In short: as §1

[4] = compound: CC[C@H](CO)Nc1nc(NCc2ccccc2)c2ncn(C(C)C)c2n1 [Seliciclib] + CC(C)C[C@H](NC(=O)[C@H](Cc1ccccc1)NC(=O)c1cnccn1)B(O)O [Bortezomib] (partner 0.002 µM)
In short: as §1

Row | Cell Line | relative viability ([1]; first compound 0.08 µM) | relative viability ([1]; first compound 0.253 µM) | relative viability ([1]; first compound 0.8 µM) | relative viability ([1]; first compound 2.53 µM) | relative viability ([1]; first compound 8 µM) | relative viability ([2]; first compound 0.08 µM) | relative viability ([2]; first compound 0.253 µM) | relative viability ([2]; first compound 0.8 µM) | relative viability ([2]; first compound 2.53 µM) | relative viability ([2]; first compound 8 µM) | relative viability ([3]; first compound 0.08 µM) | relative viability ([3]; first compound 0.253 µM) | relative viability ([3]; first compound 0.8 µM) | relative viability ([3]; first compound 2.53 µM) | relative viability ([3]; first compound 8 µM) | relative viability ([4]; first compound 0.08 µM) | relative viability ([4]; first compound 0.253 µM) | relative viability ([4]; first compound 0.8 µM) | relative viability ([4]; first compound 2.53 µM) | relative viability ([4]; first compound 8 µM)
1 | LK-2 | 0.414 | 0.379 | 0.584 | 0.187 | 0.293 | 0.203 | 0.154 | 0.17 | 0.175 | 0.168 | 0.359 | 0.276 | 0.309 | 0.166 | 0.263 | – | – | – | – | –
2 | NCI-H661 | – | – | – | – | – | 0.338 | 0.362 | 0.373 | 0.359 | 0.355 | 0.552 | 0.597 | 0.549 | 0.511 | 0.435 | 0.778 | 0.871 | 0.675 | 0.79 | 0.58
3 | NCI-H358 | 0.55 | 0.577 | 0.235 | 0.462 | 0.434 | 0.11 | 0.0892 | 0.112 | 0.104 | 0.11 | 0.204 | 0.216 | 0.221 | 0.193 | 0.176 | – | – | – | – | –
4 | NCI-H1648 | 0.775 | 1.06 | 0.758 | 0.826 | 0.71 | 0.531 | 0.825 | 0.413 | 0.362 | 0.364 | 0.486 | 0.615 | 0.605 | 0.45 | 0.473 | – | – | – | – | –
5 | SW 1573 | – | – | – | – | – | 0.248 | 0.162 | 0.195 | 0.136 | 0.175 | 0.497 | 0.515 | 0.474 | 0.408 | 0.663 | 0.923 | 0.876 | 1.02 | 1.02 | 0.868
6 | COR-L 105 | – | – | – | – | – | 0.423 | 0.321 | 0.366 | 0.346 | 0.436 | 0.568 | 0.664 | 0.648 | 0.605 | 0.557 | 0.876 | 0.961 | 0.676 | 0.535 | 0.774
7 | EBC-1 | – | – | – | – | – | – | – | – | – | – | – | – | – | – | – | 0.554 | 0.553 | 0.623 | 0.466 | 0.379
8 | SK-LU-1 | – | – | – | – | – | 0.33 | 0.383 | 0.354 | 0.314 | 0.326 | 0.614 | 0.544 | 0.649 | 0.614 | 0.542 | 1.07 | 1.23 | 1.3 | 1.08 | 0.771
9 | SW 900 | 0.537 | 0.616 | 0.704 | 0.647 | 0.559 | 0.79 | 0.689 | 0.488 | 0.401 | 0.307 | 0.45 | 0.403 | 0.457 | 0.478 | 0.346 | – | – | – | – | –
10 | SK-MES-1 | – | – | – | – | – | 0.907 | 0.939 | 0.807 | 0.881 | 0.674 | 0.386 | 0.371 | 0.349 | 0.451 | 0.458 | – | – | – | – | –
11 | NCI-H520 | – | – | – | – | – | 0.47 | – | 0.406 | 0.459 | 0.573 | 0.522 | 0.486 | 0.537 | 0.632 | 0.643 | 0.521 | 0.507 | 0.581 | 0.679 | 0.429
12 | UMC-11 | – | – | – | – | – | 0.202 | 0.202 | 0.214 | 0.194 | 0.202 | 0.542 | 0.392 | 0.612 | 0.606 | 0.526 | 0.715 | 0.932 | 0.831 | 0.827 | 0.529
13 | NCI-H1792 | 0.897 | 0.57 | 0.567 | – | 0.736 | – | – | – | – | – | 0.45 | 0.506 | 0.608 | – | 0.556 | 1.03 | 0.96 | 0.898 | 0.904 | 0.884
14 | NCI-H1563 | – | – | – | – | – | – | – | – | – | – | – | – | – | – | – | 0.856 | 0.79 | 0.892 | 0.806 | 0.861
15 | NCI-H1395 | 0.41 | 0.436 | 0.419 | – | 0.533 | 0.738 | 0.718 | 0.719 | 0.718 | 0.69 | 0.729 | 0.621 | 0.681 | – | 0.705 | – | – | – | – | –
16 | NCI-H1299 | – | – | – | – | – | – | – | – | – | – | – | – | – | – | – | 0.995 | 1.1 | 0.985 | 1.04 | 0.992
17 | NCI-H2228 | – | – | – | – | – | 0.313 | 0.318 | 0.267 | 0.241 | 0.178 | – | – | – | – | – | 1.05 | 0.943 | 0.954 | 0.978 | 0.713
18 | NCI-H1793 | 0.51 | 0.45 | 0.547 | 0.792 | 1.09 | 0.329 | 0.337 | 0.333 | 0.501 | 0.234 | 0.496 | 0.47 | 0.477 | 0.539 | 0.529 | – | – | – | – | –
19 | NCI-H522 | 0.862 | 0.717 | 0.863 | 0.952 | 0.873 | 0.711 | 0.523 | 0.547 | 0.49 | 0.614 | 0.699 | 0.545 | 0.659 | 0.645 | 0.611 | – | – | – | – | –
20 | A549 | – | – | – | – | – | – | – | – | – | – | 0.279 | 0.235 | 0.188 | 0.286 | 0.248 | – | – | – | – | –
21 | NCI-H1944 | 0.521 | 0.473 | 0.503 | 0.584 | 0.636 | 0.263 | 0.242 | 0.235 | 0.225 | 0.234 | 0.471 | 0.43 | 0.467 | 0.519 | 0.405 | – | – | – | – | –
22 | CAL-12T | 0.509 | 0.772 | 0.71 | 0.707 | 0.729 | 0.297 | 0.313 | 0.294 | 0.247 | 0.234 | – | – | – | – | – | 0.936 | 1.36 | 0.888 | 0.785 | 0.567
23 | COR-L23 | – | – | – | – | – | 0.224 | 0.234 | 0.187 | 0.164 | 0.154 | 0.395 | 0.34 | 0.478 | 0.419 | 0.403 | 1.01 | 1.1 | 0.962 | 1.06 | 0.751
24 | IA-LM | – | – | – | – | – | – | – | – | – | – | – | – | – | – | – | 0.78 | 0.94 | 0.708 | 0.817 | 0.729
25 | NCI-H1650 | – | – | – | – | – | 0.387 | 0.437 | 0.364 | 0.422 | 0.318 | 0.439 | 0.278 | 0.437 | 0.403 | 0.52 | 0.214 | 0.217 | 0.2 | 0.21 | 0.178
26 | Calu-6 | – | – | – | – | – | – | – | – | – | – | – | – | – | – | – | 0.969 | 0.938 | 1.12 | 1.01 | 0.989
